Measurements published in patent US5340833A, “Urokinase inhibitors” (Eisai Co., Ltd., priority 1992, dated 1994).
“And” between values parts separate entries of the source, which are not always exact repeats. Equal entries are not always repeated. Structures can show the parent of a compound that is named as a salt.

How the values were obtained:
Assay type in all cases: biochemical
urokinase = target: T1, urokinase (Homo sapiens, UniProt P00749); assay: Urokinase Indirect (Plasminogen-Linked) Assay; details: Table 3 column 4, simple number, unit inferred; read-out: uPA Indirect (plasminogen-linked) IC50
T1 construct: human high molecular weight urokinase; purchased American Diagnostica, Greenwich, Conn
Protocol: (ii) An indirect plasminogen-linked assay in which urokinase proteolytically activates plasminogen, forming plasmin which then cleaves a synthetic tripeptide pNA plasmin substrate.
Incubations were carried out at 22° C. for 45-60 minutes or until adequate color developed. Color qas quantitated as in the urokinase direct assay above. Parallel incubations were performed with and without plasminogen, and corrected absorbance values were obtained by subtracting values obtained without plasminogen from those obtained with plasminogen, eliminating any contribution of direct cleavage, if any, of plasmin substrate by urokinase.

human two-chain tPA = target: T2, human two-chain tPA (Homo sapiens, UniProt P00750); assay: tPA Indirect (Plasminogen-Linked) Assay (tPA Direct Assay result where lower); details: for tPA/UPA ratio: ratio with respect to urokinase indirect plasminogen-linked IC50, larger = greater specificity for urokinase; for IC50: tPA Indirect Plasminogen-Linked Assay, in rare cases direct assay result if lower, read-out: tPA IC50
T2 construct: human two-chain tPA was substituted for urokinase; purchased American Diagnostica
T2 sequence (P00750 311-562 limits assumed): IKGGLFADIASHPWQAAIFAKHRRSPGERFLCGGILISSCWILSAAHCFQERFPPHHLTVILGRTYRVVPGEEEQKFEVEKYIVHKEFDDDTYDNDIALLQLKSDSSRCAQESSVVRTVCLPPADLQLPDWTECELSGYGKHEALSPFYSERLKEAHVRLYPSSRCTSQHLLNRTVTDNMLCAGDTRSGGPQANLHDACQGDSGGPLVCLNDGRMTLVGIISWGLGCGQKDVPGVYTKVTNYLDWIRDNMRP
T2 sequence (P00750 36-310 limits assumed): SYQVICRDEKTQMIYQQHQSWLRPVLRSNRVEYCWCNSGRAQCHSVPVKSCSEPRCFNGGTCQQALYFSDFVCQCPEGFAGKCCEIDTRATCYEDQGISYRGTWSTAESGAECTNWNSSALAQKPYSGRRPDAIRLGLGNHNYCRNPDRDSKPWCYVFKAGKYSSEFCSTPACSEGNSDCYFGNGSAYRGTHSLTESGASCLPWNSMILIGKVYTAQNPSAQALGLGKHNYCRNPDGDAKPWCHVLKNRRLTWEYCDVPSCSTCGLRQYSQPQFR
Excerpt: (iv) Both direct and plasminogen-linked pNA assays for tPA, the other mammalian plasminogen activator and the key initiator of blood clot dissolution or fibrinolysis. Since urokinase and tPA share an absolute specificity for the same peptide bond in plasminogen, urokinase inhibitors designed to block cellular invasiveness must be highly specific for urokinase over tPA in order to avoid serious thrombotic side effects secondary to undesired blockage of normal fibrinolysis. […] Spectrozyme tPA®, American Diagnostica) was substituted for urokinase substrate.

human plasmin = target: T3, human plasmin (Homo sapiens, UniProt P00747); assay: Plasmin Assay; details: for PLM/uPA ratio: ratio with respect to urokinase indirect plasminogen-linked IC50, larger = greater specificity for urokinase; for inhibition at 1000 µM: read-out: PLASMIN activity observed relative to inhibitor-free controls; for IC50: read-out: PLASMIN IC50
T3 construct: plasmin, the potent general protease produced by cleavage of plasminogen by either urokinase or tPA; purchased American Diagnostica
T3 sequence (P00747 581-810 limits assumed): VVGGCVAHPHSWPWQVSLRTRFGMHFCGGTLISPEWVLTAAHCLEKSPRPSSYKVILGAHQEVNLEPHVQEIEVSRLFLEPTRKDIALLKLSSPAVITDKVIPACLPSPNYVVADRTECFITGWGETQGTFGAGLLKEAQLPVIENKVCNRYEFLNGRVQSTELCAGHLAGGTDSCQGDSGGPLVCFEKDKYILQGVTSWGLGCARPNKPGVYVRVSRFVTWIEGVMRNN
T3 sequence (P00747 97-580 limits assumed): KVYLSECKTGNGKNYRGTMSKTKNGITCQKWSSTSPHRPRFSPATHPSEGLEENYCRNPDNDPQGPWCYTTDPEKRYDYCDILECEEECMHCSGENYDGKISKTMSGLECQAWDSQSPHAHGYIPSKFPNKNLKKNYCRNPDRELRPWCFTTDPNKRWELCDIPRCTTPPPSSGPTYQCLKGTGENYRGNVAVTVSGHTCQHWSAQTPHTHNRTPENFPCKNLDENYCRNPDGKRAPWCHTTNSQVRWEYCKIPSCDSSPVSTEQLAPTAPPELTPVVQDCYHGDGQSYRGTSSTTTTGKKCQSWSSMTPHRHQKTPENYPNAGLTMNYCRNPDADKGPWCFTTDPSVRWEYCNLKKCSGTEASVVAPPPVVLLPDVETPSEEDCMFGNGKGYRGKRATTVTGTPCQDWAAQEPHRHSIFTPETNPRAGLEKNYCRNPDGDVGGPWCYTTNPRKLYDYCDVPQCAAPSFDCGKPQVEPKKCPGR
Protocol: (v) A chromogenic pNA assay for plasmin, the potent general protease produced by cleavage of plasminogen by either urokinase or tPA. Although urokinase initiates cellular invasiveness by generating plasmin, the additional importance of plasmin in tPA-mediated fibrinolysis dictates that plasmin itself should be free from inhibition by urokinase inhibitors designed as anti-invasiveness agents. […] All other assay conditions, as well as methods of color quantitation, were carried out as described above for the urokinase direct assay.

Compound	IC50 (urokinase)	tPA/UPA ratio (human two-chain tPA)	IC50 (human two-chain tPA) [µM]	PLM/uPA ratio (human plasmin)	inhibition at 1000 µM (human plasmin) [%]	IC50 (human plasmin) [µM]	inhibition at 1000 µM (human two-chain tPA; read-out: tPA activity observed relative to inhibitor-free controls) [%]
COc1ccc2sc(C(=N)N)cc2c1Br.Cl [Compound 204, 4-Bromo-5-methoxybenzo[b]thiophene-2-carboxamidine hydrochloride]	1.7 µM	251	427	≥ 750	69		
Cl.N=C(N)c1cc2c(CO)cccc2s1 [Compound 56, 4-(Hydroxymethyl)benzo[b]thiophene-2-carboxamidine hydrochloride]	0.88 µM	640	563	≥ 1500	67		
CCC/C=C/c1cccc2sc(C(=N)N)cc12.Cl [Compound 25, 4-(E-Pent-1-enyl)benzo[b]thiophene-2-carboxamidine hydrochloride]	0.14 µM	343	48	1471		206	
Cl.N=C(N)c1cc2cc(Br)ccc2s1 [Compound 103, 5-Bromobenzo[b]thiophene-2-carboxamidine hydrochloride]	3.5 µM	≥ 400		≥ 4000	98		63
Cl.N=C(N)c1cc2c(C#Cc3ccc4c(c3)OCO4)cccc2s1 [Compound 77, 4-[(Benzo-1,3-dioxolan-5-yl)ethynyl]benzo[b]thiophene-2-carboxamidine hydrochloride]	0.059 µM	142	8.4	≈ 4240		~250	
CCCCc1cccc2sc(C(=N)N)cc12.Cl [Compound 10, 4-Butylbenzo[b]thiophene-2-carboxamidine hydrochloride]	0.42 µM	352	148	907		381	
C=CCOCc1cc2ccc3sc(C(=N)N)cc3c2s1 [Compound 208, 5-(Prop-2-en-1-yloxymethyl)thieno[4,5-b]benzo[b]thiophene-2-carboxamidine hydrochloride]	0.3 µM	190	57	910		273	
Cl.N=C(N)c1cc2c(C#Cc3ccco3)cccc2s1 [Compound 75, 4-[(Furan-2-yl)ethynyl]benzo[b]thiophene-2-carboxamidine hydrochloride]	0.17 µM	194	33	1694		288	
N=C(N)c1cc2c(C=Cc3ccc4c(c3)OCCO4)cccc2s1 [Compound 66, 4-[E/Z,2-(Benzo-1,4-dioxan-6-yl)ethenyl]benzo[b]thiophene-2-carboxamidine hydrochloride]	0.12 µM and 0.038 µM	395	15	4580		174	
CC(C)CCc1cccc2sc(C(=N)N)cc12.Cl [Compound 12, 4-(3-Methylbutyl)benzo[b]thiophene-2-carboxamidine hydrochloride]	0.34 µM	279	95	847		288	
N=C(N)c1cc2c(C=Cc3ccccc3)cccc2s1 [Compound 63, 4-(E/Z-2-Phenylethenyl)benzo[b]thiophene-2-carboxamidine hydrochloride]	0.14 µM	86	12	1250		175	
